What was measured:
[1] = test system: two-spotted spider mites; test: Miticidal test on two-spotted spider mites (by dipping); type: in vivo, Tetranychus urticae; set-up: scale not given here; details: dipping of soybean seedlings, active ingredient 500 ppm, 25° C., 13 days
Procedure: (§1) Wettable powders were prepared in accordance with Formulation Example 2 and diluted with water to an active ingredient concentration of 500 ppm. Soybean seedlings which had been inoculated with imago two-spotted spider mites were dipped in the resulting solutions and dried in air. The treated seedlings were placed in a thermostatic chamber at 25° C. for 13 days, and the mite survivors were counted for calculation of the miticidal value by using Equation 2. The test was carried out by one series system.

[2] = test system: two-spotted spider mites; test: Miticidal test on two-spotted spider mites (by soil drenching); type: in vivo, Tetranychus urticae; set-up: scale not given here; details: active ingredient 100 ppm, 5 ml per 100 g soil, 25° C., 13 days
Procedure: as §1, with “100” for “500”, “100 g of the soil in cups with soybean” for “Soybean”, “drenched with 5 ml of” for “dipped in”, “solutions.” for “solutions and dried in air.”, “[…]” for “thermostatic”, “2.” for “2. The test was carried out by one series system.”

[3] = test system: brown planthoppers; test: Insecticidal test on brown planthoppers; type: in vivo, Nilaparvata lugens; details: active ingredient 500 ppm, germinating rice immersed, 4th-instar larvae, 25° C., 6 days
Procedure: Wettable powders were prepared in accordance with Formulation Example 2 and diluted with water to an active ingredient concentration of 500 ppm. Germinating rice was immersed in the resulting solutions and put in a plastic cup with a capacity of 60 ml. Ten 4th-instar larvae of brown planthoppers were released to the cup, and the cup was covered and placed in a thermostatic chamber at 25° C. for 6 days, and the survivors were counted for calculation of the insecticidal degree by using Equation 1. The test was carried out by one series system.

[4] = test system: southern root-knot nematodes; test: Nemastatic test on southern root-knot nematodes; type: in vivo, Meloidogyne sp.; details: diluted solution 20 ppm mixed 1:1 with suspension of second stage larvae, 25° C., 5 days
Procedure: Compounds of the present invention (5 parts) and Tween 20 (tradename for polyoxyethylene sorbitan monolaurate) (1 part) as a spreader were dissolved n N,N-dimethylformamide (94 parts) to prepare 5% emulsifiable concentrates of the compounds of the present invention. Distilled water was added to the emulsifiable concentrates to prepare diluted solutions having a concentration of the compounds of the present invention of 20 ppm. 0.5 ml of the diluted solutions and 0.5 ml of water suspensions containing 100 second stage larvae of southern root-knot nematodes were mixed, and the mixture were placed in a thermostatic chamber at 25° C. for 5 days, and the survivors were counted for calculation of the nemastatic degree by using Equation 3. The test was carried out by two series system.

SMILES	Miticidal value [1]	Miticidal value [2]	Insecticidal degree (%) [3]	Nemastatic degree (%) [4]
C#CCNc1nc(SCC(F)(F)F)nn1-c1cc([S+]([O-])CC(F)(F)F)c(C)cc1F (racemic) [Compound 185]	100	100	100%	
CCC(=O)Nc1nc(C(F)(F)F)nn1-c1cc([S+]([O-])CC(F)(F)F)c(C)cc1F (racemic) [Compound 187]	100	99	100%	
Cc1cc(F)c(-n2nc(C(F)(F)F)nc2NC(=O)CCl)cc1[S+]([O-])CC(F)(F)F (racemic) [Compound 190]	100	100	100%	
Cc1cc(F)c(-n2nc(C(F)(F)F)nc2NC(=O)C(F)(F)Cl)cc1[S+]([O-])CC(F)(F)F (racemic) [Compound 192]	100	100	100%	
C#CCNc1nc(SC(F)(F)C(F)(F)F)nn1-c1cc([S+]([O-])CC(F)(F)F)c(C)cc1F (racemic) [Compound 194]	100	100	100%	
Cc1cc(F)c(-n2nc(C(F)(F)F)nc2NC(=O)NC(C)C)cc1[S+]([O-])CC(F)(F)F (racemic) [Compound 202]	100	100	100%	
Cc1cc(F)c(-n2nc(C(F)(F)F)nc2N(C)C(=O)C(F)(F)F)cc1[S+]([O-])CC(F)(F)F (racemic) [Compound 212]	100	100	100%	100%
Cc1cc(F)c(-n2nc(C(F)(F)F)nc2N)cc1[S+]([O-])CC1CC1 (stereo not drawn) [Compound 4]	100	100	90%	
Cc1cc(F)c(-n2nc(C(F)(F)F)nc2NC(=O)C(F)(F)F)cc1SCC(F)(F)F [Compound 5, [5-(5-trifluoroacetylamino-3-trifluoromethyl-1,2,4-triazolyl)-4-fluoro-2-methylphenyl]2,2,2-trifluoroethyl sulfide]	100	100	100%	
Cc1cc(Cl)c(-n2nc(C(F)(F)F)nc2N)cc1[S+]([O-])CC(F)(F)F (stereo not drawn) [Compound 8, [5-(5-amino-3-trifluoromethyl-1,2,4-triazolyl)-4-chloro-2-methylphenyl]2,2,2-trifluoroethyl sulfoxide]	100	100		
Cc1cc(F)c(-n2nc(SC(F)F)nc2N)cc1[S+]([O-])CC(F)(F)F (stereo not drawn) [Compound 28]	100	100	100%	
Cc1cc(F)c(-n2nc([S+]([O-])C(F)F)nc2N)cc1[S+]([O-])CC(F)(F)F (stereo not drawn) [Compound 30]	100	100		95%
Cc1cc(F)c(-n2nc(SC(F)(F)F)nc2N)cc1[S+]([O-])CC(F)(F)F (stereo not drawn) [Compound 32]	100	100	100%	
Cc1cc(F)c(-n2nc(C#N)nc2N)cc1SCC(F)(F)F [Compound 35]	100	93		100%
Cc1cc(F)c(-n2nc(C#N)nc2N)cc1[S+]([O-])CC(F)(F)F (stereo not drawn) [Compound 36]	100	100		100%
CNc1nc(C(F)(F)F)nn1-c1ccc(C)c(SCC(F)(F)F)c1 [Compound 37]	100	100	100%	
Cc1cc(C)c([S+]([O-])CC(F)(F)F)cc1-n1nc(C(F)(F)F)nc1N (stereo not drawn) [Compound 56]	100	100		
CCNc1nc(C(F)(F)F)nn1-c1cc([S+]([O-])CC(F)(F)F)c(C)cc1F (stereo not drawn) [Compound 60]	100	100	100%	
CC(=O)Nc1nc(C(F)(F)F)nn1-c1cc([S+]([O-])CC(F)(F)F)c(C)cc1F (stereo not drawn) [Compound 76]	100	100	100%	
COC(=O)Nc1nc(C(F)(F)F)nn1-c1cc([S+]([O-])CC(F)(F)F)c(C)cc1F (stereo not drawn) [Compound 80]	100	100	100%	

SMILES	Miticidal value [1]	Miticidal value [2]	Insecticidal degree (%) [3]	Nemastatic degree (%) [4]
Cc1cc(F)c(-n2nc(C(F)(F)F)nc2NC(=O)N(C)C)cc1[S+]([O-])CC(F)(F)F (stereo not drawn) [Compound 84]	100	100	100%	
CNc1nc(C(F)(F)F)nn1-c1cc([S+]([O-])CC(F)(F)F)c(C)cc1Cl (stereo not drawn) [Compound 98]	100	100		
Cc1cc(F)c(-n2nc(SC(F)(F)F)nc2NC(=O)C(F)(F)F)cc1SCC(F)(F)F [Compound 99]	100	100	100%	
Cc1cc(F)c(-n2nc(C(C)(C)C#N)nc2N)cc1[S+]([O-])CC(F)(F)F (stereo not drawn) [Compound 104]	100	100		
Cc1cc(F)c(-n2nc(CC(C)(C)C)nc2N)cc1[S+]([O-])CC(F)(F)F (stereo not drawn) [Compound 107]	100	100		
Cc1cc(F)c(-n2nc(C(C)C)nc2N)cc1[S+]([O-])CC(F)(F)F (stereo not drawn) [Compound 111]	100	100	100%	
CC(=O)Nc1nc(C(C)(C)C)nn1-c1cc([S+]([O-])CC(F)(F)F)c(C)cc1F (stereo not drawn) [Compound 113]	100	100	100%	
CCc1nc(N)n(-c2cc([S+]([O-])CC(F)(F)F)c(C)cc2F)n1 (stereo not drawn) [Compound 117]	100	100	100%	
CCC(C)(C)c1nc(N)n(-c2cc([S+]([O-])CC(F)(F)F)c(C)cc2F)n1 (stereo not drawn) [Compound 119]	100	100	90%	
N#Cc1ccc(-n2nc(C(F)(F)F)nc2N)cc1[S+]([O-])CC(F)(F)F (stereo not drawn) [Compound 121]	100	100		
Nc1nc(C(F)(F)F)nn1-c1ccc(C(F)F)c([S+]([O-])CC(F)(F)F)c1 (stereo not drawn) [Compound 123]	100	100		98%
Cc1cc(F)c(-n2nc(C(C)(C)C)nc2N)cc1[S+]([O-])CC(F)(F)F (stereo not drawn) [Compound 145]	100	100		
CNc1nc(C(F)(F)F)nn1-c1cc([S+]([O-])CC(F)(F)F)c(C)cc1C (stereo not drawn) [Compound 147]	100	100		
Cc1ccc(-n2nc(C(F)(F)F)nc2NC(=O)C(F)(F)F)cc1[S+]([O-])CC(F)(F)F (stereo not drawn) [Compound 153]	100	100	100%	
CC(=O)Nc1nc(SCC(F)(F)F)nn1-c1cc([S+]([O-])CC(F)(F)F)c(C)cc1F (stereo not drawn) [Compound 155]	100	100	90%	
CC(=O)Nc1nc([S+]([O-])CC(F)(F)F)nn1-c1cc([S+]([O-])CC(F)(F)F)c(C)cc1F (stereo not drawn) [Compound 157]	100	100	100%	
Cc1cc(F)c(-n2nc(C(F)(F)F)nc2NC(C)C)cc1[S+]([O-])CC(F)(F)F (stereo not drawn) [Compound 167]	100	100	100%	
CNC(=O)Nc1nc(C(F)(F)F)nn1-c1cc([S+]([O-])CC(F)(F)F)c(C)cc1F (stereo not drawn) [Compound 169]	100	100	100%	
O=Cc1ccc(-n2cnc(C(F)(F)F)n2)cc1[S+]([O-])CC(F)(F)F (stereo not drawn) [a, reference compound]	100	0		
[O-][S+](CC(F)(F)F)c1cc(-n2cnc(C(F)(F)F)n2)ccc1CF (stereo not drawn) [b, reference compound]	99	0		
